Measurements as given in PubChem BioAssay (NCI).
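Assay format: 96-well plates, 48-hour exposure. TGI: total growth inhibition.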

Columns and labels:
Test in all cases: NCI anticancer screen, dose series, 48 h
IGROV1 ovarian = system: IGROV1 ovarian
OVCAR-4 ovarian = system: OVCAR-4 ovarian
HCT-15 colon = system: HCT-15 colon
DU-145 prostate = system: DU-145 prostate
SW-620 colon = system: SW-620 colon
COLO 205 colon = system: COLO 205 colon
U251 CNS = system: U251 CNS
NCI-H23 lung = system: NCI-H23 lung
MOLT-4 leukemia = system: MOLT-4 leukemia
SF-539 CNS = system: SF-539 CNS
A549 NSCLC = system: A549 NSCLC
HT29 colon = system: HT29 colon
HL-60(TB) leukemia = system: HL-60(TB) leukemia
T-47D breast = system: T-47D breast
HCT-116 colon = system: HCT-116 colon
A498 renal = system: A498 renal
M14 melanoma = system: M14 melanoma
HOP-92 NSCLC = system: HOP-92 NSCLC
KM12 colon = system: KM12 colon
MDA-MB-435 = system: MDA-MB-435
PC-3 prostate = system: PC-3 prostate
BT-549 breast = system: BT-549 breast
OVCAR-3 ovarian = system: OVCAR-3 ovarian
NCI-H226 lung = system: NCI-H226 lung
NCI-H522 lung = system: NCI-H522 lung
SF-268 CNS = system: SF-268 CNS
SK-MEL-5 melanoma = system: SK-MEL-5 melanoma
EKVX NSCLC = system: EKVX NSCLC
TK-10 renal = system: TK-10 renal
RXF 393 renal = system: RXF 393 renal
OVCAR-5 ovarian = system: OVCAR-5 ovarian
ACHN renal = system: ACHN renal
SNB-75 CNS = system: SNB-75 CNS
HOP-62 NSCLC = system: HOP-62 NSCLC
LOX IMVI melanoma = system: LOX IMVI melanoma
HCC-2998 colon = system: HCC-2998 colon
NCI/ADR-RES ovarian = system: NCI/ADR-RES ovarian
RPMI-8226 leukemia = system: RPMI-8226 leukemia
MALME-3M melanoma = system: MALME-3M melanoma
MCF7 breast = system: MCF7 breast
786-0 renal = system: 786-0 renal
UACC-62 melanoma = system: UACC-62 melanoma
SF-295 CNS = system: SF-295 CNS
CCRF-CEM leukemia = system: CCRF-CEM leukemia
UO-31 renal = system: UO-31 renal
NCI-H460 lung = system: NCI-H460 lung
MDA-N = system: MDA-N
OVCAR-8 ovarian = system: OVCAR-8 ovarian
SK-MEL-28 melanoma = system: SK-MEL-28 melanoma
HS 578T breast = system: HS 578T breast
SNB-19 CNS = system: SNB-19 CNS
SN12C renal = system: SN12C renal
CAKI-1 renal = system: CAKI-1 renal
UACC-257 melanoma = system: UACC-257 melanoma
SK-MEL-2 melanoma = system: SK-MEL-2 melanoma
K-562 leukemia = system: K-562 leukemia
SK-OV-3 ovarian = system: SK-OV-3 ovarian
MDA-MB-231 breast = system: MDA-MB-231 breast

## COc1ccc(N=NC(=O)NC(CC(C)C)C(=O)NC(Cc2ccccc2)C(=O)O)cc1 (stereo not drawn)
IGROV1 ovarian
  TGI: > 100 µM
OVCAR-4 ovarian
  TGI: > 100 µM
HCT-15 colon
  TGI: > 100 µM
DU-145 prostate
  TGI: > 100 µM
SW-620 colon
  TGI: > 100 µM
COLO 205 colon
  TGI: 5.36 µM
U251 CNS
  TGI: > 100 µM
NCI-H23 lung
  TGI: > 100 µM
MOLT-4 leukemia
  TGI: > 100 µM
SF-539 CNS
  TGI: 3.22 µM
A549 NSCLC
  TGI: > 100 µM
HT29 colon
  TGI: > 100 µM
HL-60(TB) leukemia
  TGI: 8.18 µM
T-47D breast
  TGI: > 100 µM
HCT-116 colon
  TGI: > 100 µM
A498 renal
  TGI: > 100 µM
M14 melanoma
  TGI: > 100 µM
HOP-92 NSCLC
  TGI: 97.5 µM
KM12 colon
  TGI: > 100 µM
MDA-MB-435
  TGI: > 100 µM
PC-3 prostate
  TGI: > 100 µM
BT-549 breast
  TGI: > 100 µM
OVCAR-3 ovarian
  TGI: > 100 µM
NCI-H226 lung
  TGI: > 100 µM
NCI-H522 lung
  TGI: > 100 µM
SF-268 CNS
  TGI: > 100 µM
SK-MEL-5 melanoma
  TGI: 25.6 µM
EKVX NSCLC
  TGI: > 100 µM
TK-10 renal
  TGI: > 100 µM
RXF 393 renal
  TGI: > 100 µM
OVCAR-5 ovarian
  TGI: > 100 µM
ACHN renal
  TGI: > 100 µM
SNB-75 CNS
  TGI: > 100 µM
HOP-62 NSCLC
  TGI: > 100 µM
LOX IMVI melanoma
  TGI: 46.9 µM
HCC-2998 colon
  TGI: > 100 µM
NCI/ADR-RES ovarian
  TGI: > 100 µM
RPMI-8226 leukemia
  TGI: > 100 µM
MALME-3M melanoma
  TGI: > 100 µM
MCF7 breast
  TGI: > 100 µM
786-0 renal
  TGI: > 100 µM
UACC-62 melanoma
  TGI: > 100 µM
SF-295 CNS
  TGI: > 100 µM
CCRF-CEM leukemia
  TGI: > 100 µM
UO-31 renal
  TGI: > 100 µM
NCI-H460 lung
  TGI: > 100 µM
MDA-N
  TGI: > 100 µM
OVCAR-8 ovarian
  TGI: > 100 µM
SK-MEL-28 melanoma
  TGI: > 100 µM
HS 578T breast
  TGI: > 100 µM
SNB-19 CNS
  TGI: > 100 µM
SN12C renal
  TGI: > 100 µM
CAKI-1 renal
  TGI: > 100 µM
UACC-257 melanoma
  TGI: 45.2 µM

## NNC(=O)c1n[nH]n(N)c1=S
IGROV1 ovarian
  TGI: > 100 µM
OVCAR-4 ovarian
  TGI: > 100 µM
HCT-15 colon
  TGI: > 100 µM
DU-145 prostate
  TGI: > 100 µM
SW-620 colon
  TGI: > 100 µM
COLO 205 colon
  TGI: > 100 µM
SK-MEL-2 melanoma
  TGI: > 100 µM
U251 CNS
  TGI: > 100 µM
NCI-H23 lung
  TGI: > 100 µM
MOLT-4 leukemia
  TGI: > 100 µM
SF-539 CNS
  TGI: > 100 µM
A549 NSCLC
  TGI: > 100 µM
HT29 colon
  TGI: > 100 µM
T-47D breast
  TGI: > 100 µM
HCT-116 colon
  TGI: > 100 µM
A498 renal
  TGI: > 100 µM
M14 melanoma
  TGI: > 100 µM
KM12 colon
  TGI: > 100 µM
K-562 leukemia
  TGI: > 100 µM
MDA-MB-435
  TGI: > 100 µM
PC-3 prostate
  TGI: > 100 µM
BT-549 breast
  TGI: > 100 µM
OVCAR-3 ovarian
  TGI: > 100 µM
NCI-H226 lung
  TGI: > 100 µM
NCI-H522 lung
  TGI: > 100 µM
SF-268 CNS
  TGI: > 100 µM
SK-MEL-5 melanoma
  TGI: > 100 µM
EKVX NSCLC
  TGI: > 100 µM
TK-10 renal
  TGI: > 100 µM
RXF 393 renal
  TGI: > 100 µM
SK-OV-3 ovarian
  TGI: > 100 µM
OVCAR-5 ovarian
  TGI: > 100 µM
ACHN renal
  TGI: > 100 µM
SNB-75 CNS
  TGI: > 100 µM
HOP-62 NSCLC
  TGI: > 100 µM
LOX IMVI melanoma
  TGI: > 100 µM
HCC-2998 colon
  TGI: > 100 µM
NCI/ADR-RES ovarian
  TGI: > 100 µM
RPMI-8226 leukemia
  TGI: > 100 µM
MALME-3M melanoma
  TGI: > 100 µM
786-0 renal
  TGI: > 100 µM
UACC-62 melanoma
  TGI: > 100 µM
SF-295 CNS
  TGI: > 100 µM
CCRF-CEM leukemia
  TGI: > 100 µM
UO-31 renal
  TGI: > 100 µM
NCI-H460 lung
  TGI: > 100 µM
MDA-N
  TGI: > 100 µM
MDA-MB-231 breast
  TGI: > 100 µM
OVCAR-8 ovarian
  TGI: > 100 µM
SK-MEL-28 melanoma
  TGI: > 100 µM
HS 578T breast
  TGI: > 100 µM
SN12C renal
  TGI: > 100 µM
CAKI-1 renal
  TGI: > 100 µM
UACC-257 melanoma
  TGI: > 100 µM
